Paper PMC9303312, “Balancing Histone Deacetylase (HDAC) Inhibition and Drug‐likeness: Biological and Physicochemical Evaluation of Class I Selective HDAC Inhibitors” (Chemmedchem, 2022)

Experiments:
[1] = target: T1, HDAC1 (Homo sapiens, UniProt Q13547); experiment: 100-fold Jump-Dilution experiments; assay type: biochemical; details: diluted inhibitor concentration as indicated per compound, vehicle [DMSO 1 %]=111.9
[2] = target: T2, HDAC3 (Homo sapiens, UniProt O15379); experiment: 100-fold Jump-Dilution experiments; assay type: biochemical; details: diluted inhibitor concentration as indicated per compound, vehicle [DMSO 1%] = 56.7
[3] = target: T2, HDAC3; experiment: IC50-shift experiments (varied preincubation time); assay type: biochemical; details: triplicates
Experimental: into OptiPlate-96 black micro-plates (PerkinElmer).
Afterwards, the fluorogenic substrate ZMAL
The total assay volume (50 µL,
max. […] Subsequently, 50 µL trypsin solution (0.4
enzymes and the respective inhibitor dilutions were preincubated at 20 °C for 5 to 120 minutes.
Afterwards, the assay protocol was continued as stated above. Compounds were tested in
triplicates and the assay was rerun if necessary. The respective IC50 values and P95 confidence
intervals were determined using Prism 9 for MacOS.

[4] = target: T1, HDAC1; experiment: Binding kinetics via the Progression Method; assay type: biochemical; details: relationship between kobs and [I]; triplicates
Experimental: (§1) To determine the binding mechanism at the respective HDAC isoform, a series of progression curves were generated, using fixed concentrations of enzyme, substrate, and different inhibitor concentrations. The in situ AMC release was monitored continuously by fluorescence readings recorded every 30 s for 60 or 90 min at 37 °C. The data of each progression curve were fitted to the appropriate equation (Prism 9.1.0 for MacOS). For inhibitors showing slow‐binding Mechanism I&II (Figure 5) time‐dependent product formation follows Eq. 1: (Eq. 1) P=vsst+vin-vss/kobs1-e^-kobst
(§2) where [P] is the amount of generated AMC, which directly correlates with the amount of deacetylated substrate over time [t]. V in and v ss are the initial and final steady‐state velocities of product formation and k obs is the apparat first‐order rate constant for the conversion from the initial velocity to the steady‐state velocity. It characterizes the formation of an enzyme–inhibitor equilibrium.
Fast‐on/fast‐off inhibitors. […] In this case Eq. 1 simplifies as follows: (Eq. 2) P=vsst
Therefore, the deacetylation rate in absence (v 0) and presence (v i) of the inhibitor is constant over time. […] [I] and [S] are the inhibitor and substrate concentrations, respectively and K m is the Michaelis‐Menten constant.
Slow‐binding inhibitors. The slow‐binding Mechanisms I & II are distinguished by their respective relationships between k obs and the inhibitor concentration. For the single‐step slow‐binding Mechanism I the relationship between inhibitor concentration and k obs is linear. The association and dissociation rate constants (k 1 & k −1, see Figure 5) can be obtained by fitting k obs as a function of [I] to Eq. 4. (Eq. 4) kobs=k-1+k11+S/KmI
The secondary association and dissociation rate constants k 2 & k −2 (see Figure 5) as well as the equilibrium dissociation constant K i,1 of the initial inhibitor‐enzyme encounter complex [EI] can be obtained by fitting k obs as a function of [I] (Eq. 5. (Eq. 5) kobs=k-2+k2/I+Ki,11+S/KmI
Determination of binding kinetics via the Progression Method.[14] HDAC1 and HDAC3
deacetylase activities were evaluated at varying inhibitor concentrations. Appropriate inhibitor
concentrations were chosen based on the previously determined IC50 values. To ensure substrate
excess during the experiment, the substrate concentration was set to five times Km. Km was
determined using a series of substrate concentrations.
For the progression curves, the
respective enzyme was incubated with the fluorogenic substrate and inhibitor in assay buffer
(§3) 90 minutes at 37°C. The relationship between AMC concentration and relative fluorescence units
(RFU) was determined and the measured RFU were transformed into the respective AMC
concentration in µM. […]

[5] = target: HDAC3/NcoR2 (Homo sapiens, UniProt O15379); experiment: In vitro HDAC inhibition preincubation assay (ZMAL substrate)
[6] = target: T1, HDAC1; experiment: IC50-shift experiments (varied preincubation time); assay type: biochemical; details: triplicates
[7] = target: HDAC2 (Homo sapiens, UniProt Q92769); experiment: In vitro HDAC inhibition preincubation assay (ZMAL substrate)
[8] = physchem; details: 1-octanol/PBS buffer (mutually saturated), pH 7.4
[9] = target: T1, HDAC1; experiment: In vitro HDAC inhibition preincubation assay (ZMAL substrate)
[10] = target: T2, HDAC3; experiment: Binding kinetics via the Progression Method; assay type: biochemical; details: relationship between kobs and [I]; triplicates
Experimental: as §1, §2
Fast‐on/fast‐off inhibitors. […]
deacetylase activities were evaluated at varying inhibitor concentrations. […]
concentrations were chosen based on the previously determined IC50 values. […]
determined using a series of substrate concentrations. […]
as §3
(RFU) was determined and the measured RFU were transformed into the respective AMC […]

T2 sequence (O15379 whole entry): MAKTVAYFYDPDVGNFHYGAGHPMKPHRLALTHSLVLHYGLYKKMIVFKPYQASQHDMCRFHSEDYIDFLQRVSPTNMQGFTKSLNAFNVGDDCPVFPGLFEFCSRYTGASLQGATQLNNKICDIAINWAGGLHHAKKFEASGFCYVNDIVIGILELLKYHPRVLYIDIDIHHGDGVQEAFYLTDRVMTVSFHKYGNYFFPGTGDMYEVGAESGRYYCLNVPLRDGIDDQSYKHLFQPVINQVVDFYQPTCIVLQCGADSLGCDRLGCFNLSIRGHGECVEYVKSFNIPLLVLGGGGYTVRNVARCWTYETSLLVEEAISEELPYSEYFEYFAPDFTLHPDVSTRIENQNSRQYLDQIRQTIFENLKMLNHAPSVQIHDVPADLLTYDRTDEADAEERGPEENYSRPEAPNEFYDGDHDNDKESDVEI
T2 sequence (Q9Y618 395-489 partner limits assumed): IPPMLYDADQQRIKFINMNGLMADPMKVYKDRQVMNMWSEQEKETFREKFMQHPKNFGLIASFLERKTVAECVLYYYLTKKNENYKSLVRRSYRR
T1 sequence (Q13547 whole entry): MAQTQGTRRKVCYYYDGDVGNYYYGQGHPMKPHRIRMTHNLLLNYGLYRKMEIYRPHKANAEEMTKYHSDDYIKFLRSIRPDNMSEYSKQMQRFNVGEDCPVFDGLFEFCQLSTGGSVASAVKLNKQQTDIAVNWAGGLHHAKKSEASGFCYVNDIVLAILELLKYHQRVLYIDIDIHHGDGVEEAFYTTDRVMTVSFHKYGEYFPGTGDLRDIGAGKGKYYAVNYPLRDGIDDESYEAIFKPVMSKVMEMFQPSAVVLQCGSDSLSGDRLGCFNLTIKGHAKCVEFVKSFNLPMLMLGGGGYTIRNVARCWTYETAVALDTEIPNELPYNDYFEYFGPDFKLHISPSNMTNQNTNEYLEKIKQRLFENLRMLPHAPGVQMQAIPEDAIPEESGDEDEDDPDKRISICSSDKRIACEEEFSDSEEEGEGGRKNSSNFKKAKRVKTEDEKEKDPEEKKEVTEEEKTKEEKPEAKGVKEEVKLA
Chain of HDAC2 (Q92769 whole entry): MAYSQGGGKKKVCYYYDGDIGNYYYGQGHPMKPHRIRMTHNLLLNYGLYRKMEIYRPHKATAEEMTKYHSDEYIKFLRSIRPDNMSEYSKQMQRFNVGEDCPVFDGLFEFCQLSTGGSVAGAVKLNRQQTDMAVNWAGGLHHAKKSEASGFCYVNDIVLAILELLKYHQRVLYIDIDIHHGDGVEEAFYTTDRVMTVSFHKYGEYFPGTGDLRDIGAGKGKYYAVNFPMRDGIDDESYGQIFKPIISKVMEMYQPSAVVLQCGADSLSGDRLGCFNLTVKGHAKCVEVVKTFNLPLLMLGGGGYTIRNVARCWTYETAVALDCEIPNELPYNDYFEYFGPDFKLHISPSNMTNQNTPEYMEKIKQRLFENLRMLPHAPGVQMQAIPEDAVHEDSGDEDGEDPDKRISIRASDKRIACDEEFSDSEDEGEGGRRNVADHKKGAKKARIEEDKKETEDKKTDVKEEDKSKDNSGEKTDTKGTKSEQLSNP
Chain of HDAC3/NcoR2 (O15379 whole entry): as the sequence (O15379 whole entry) above
Chain of HDAC3/NcoR2 (Q9Y618 395-489 partner limits assumed): as the sequence (Q9Y618 395-489 partner limits assumed) above

With CN(C)c1ccc(C(=O)N(CC(=O)NCc2ccccc2)Cc2ccc(C(=O)Nc3ccccc3N)cc2)cc1 [VK‐1, reference compound] the “Final slope of progression curve after 100-fold dilution (HDAC1)” value [1] was 39.2 RFU*min^−1, the “Final slope of progression curve after 100-fold dilution (HDAC3)” value [2] was 2.51 RFU*min-1 and the IC50 ([3]; HDAC3 IC50, preincubation 5 min, preincubation time 5 min at 20°C) was 794 nM. The IC50 ([3]; HDAC3 IC50, preincubation 30 min, preincubation time 30 min at 20°C) was 432 nM, the IC50 ([3]; HDAC3 IC50, preincubation 60 min, preincubation time 60 min at 20°C) was 299 nM and the IC50 ([3]; HDAC3 IC50, preincubation 120 min, preincubation time 120 min at 20°C) was 171 nM. The “binding mechanism at HDAC1” value [4] was “slow‐binding Mechanism II”, the IC50 [5] was 310 ± 7.8 nM and the IC50 ([6]; HDAC1 IC50, preincubation 5 min, preincubation time 5 min at 20°C) was 93 nM. The IC50 ([6]; HDAC1 IC50, preincubation 30 min, preincubation time 30 min at 20°C) was 57.4 nM, the IC50 ([6]; HDAC1 IC50, preincubation 60 min, preincubation time 60 min at 20°C) was 48.3 nM and the IC50 ([6]; HDAC1 IC50, preincubation 120 min, preincubation time 120 min at 20°C) was 35.6 nM. The IC50 [7] was 128 ± 14.5 nM, the logD at 48 h [8] was 3.19 and the IC50 [9] was 68.6 ± 10.4 nM. The “binding mechanism at HDAC3” value [10] was “slow-binding Mechanism II”.
